For one experiment, the system named is Escherichia coli. As to the kind of experiment: Antibacterial activity against Escherichia coli AS19. The format is functional, organism-based.
A short description of experiment [1]: Inhibition of cobalt-activated Escherichia coli MetAP.
Experiment [2] is described as follows: Inhibition of mangnese-activated Escherichia coli MetAP.
The nature of experiment [3]: Inhibition of ferrous-activated Escherichia coli MetAP.

In brackets after ≈: the same amount, converted by molar mass. Where only a bound is given, the exact number is not on record here.

Regarding `Oc1ccc(-c2ncc(F)cn2)cc1O`, the IC50 (as a rule, the concentration needed to halve the response being measured) was 206 µM with Escherichia coli, 52.6 µM in experiment [1], above 100 µM in experiment [2] and 10.6 µM in experiment [3]. In addition, in the experiment with Escherichia coli, the MIC (usually the least concentration at which growth counts as inhibited) was 80 µg/mL (≈ 388 µM).

On to `Oc1ccc(-c2ccccn2)cc1O`, for which the IC50 in the experiment on Escherichia coli is 211 µM; in experiment [1] it was above 100 µM; in experiment [2], above 100 µM; in experiment [3], 19.3 µM. In the experiment with Escherichia coli, this compound yielded an MIC of 106 µg/mL (≈ 566 µM).

In the case of `Cn1ccnc1-c1ccc(O)c(O)c1`, the half-inhibitory concentration (IC50) in the experiment with Escherichia coli was above 250 µM; in experiment [1], above 100 µM; in experiment [2], above 100 µM; in experiment [3], above 100 µM.

In the case of `O=C(NC1CC1)c1ccc(-c2ccc(O)c(O)c2)o1`, the half-maximal inhibitory concentration (IC50) was 55 µM with Escherichia coli, above 100 µM in experiment [1], above 100 µM in experiment [2] and 14.8 µM in experiment [3]. In addition, in the experiment with Escherichia coli, the minimum inhibitory concentration (MIC) turned out to be 26 µg/mL (≈ 100 µM).

With `O=C(NC1CCCC1)c1ccc(-c2ccc(O)c(O)c2)o1`, the concentration for half-maximal inhibition (IC50) with Escherichia coli came to 23.4 µM; in experiment [1], 30.1 µM; in experiment [2] it was 11.8 µM; in experiment [3], 0.9 µM. In the experiment on Escherichia coli, the minimum inhibitory concentration (MIC) worked out at 19 µg/mL (≈ 66.1 µM).

Turning to `C=CCCNC(=O)c1ncoc1-c1cccc(O)c1O`, the IC50 in the experiment on Escherichia coli was 97.2 µM; in experiment [1] it was above 100 µM; in experiment [2], above 100 µM; in experiment [3] it was 13.4 µM. Also, in the experiment with Escherichia coli, the lowest concentration to inhibit growth (MIC) was 99 µg/mL (≈ 361 µM).

For `Oc1ccc(-c2cn(Cc3ccccc3)nn2)cc1O`, the IC50 in the experiment on Escherichia coli is 97.7 µM; in experiment [1], 24.6 µM; in experiment [2] it was 19.5 µM; in experiment [3], 16.1 µM. Moreover, inhibition of growth with Escherichia coli (MIC) required 79 µg/mL (≈ 296 µM).

`O=C(NC1CCCC1)c1ncoc1-c1cccc(O)c1O`: the 50% inhibitory concentration (IC50) in the experiment with Escherichia coli is 165 µM; in experiment [1], above 100 µM; in experiment [2], above 100 µM; in experiment [3], 11 µM. Moreover, the MIC against Escherichia coli came to 199 µg/mL (≈ 690 µM).

`COc1cnc(-c2cccc(O)c2O)o1`: the IC50 in the experiment with Escherichia coli is 228 µM; in experiment [1] it was above 100 µM; in experiment [2] it was above 100 µM; in experiment [3] it was 11.2 µM. In the experiment with Escherichia coli, this compound gave a minimum inhibitory concentration (MIC) of 164 µg/mL (≈ 792 µM).

On to `Oc1ccc(-c2ncccn2)cc1O`, for which the IC50 was above 250 µM in the experiment on Escherichia coli, above 100 µM in experiment [1], above 100 µM in experiment [2] and 25.5 µM in experiment [3].

For `COC(=O)c1ncoc1-c1cccc(O)c1O`, the IC50 with Escherichia coli was 120 µM; in experiment [1] it was above 100 µM; in experiment [2], above 100 µM; in experiment [3], 14 µM. In the experiment with Escherichia coli, the minimal inhibitory concentration (MIC) came to 99 µg/mL (≈ 421 µM).

Regarding `O=C(NC1CCC1)c1ccc(-c2ccc(O)c(O)c2)o1`, the IC50 with Escherichia coli was 43.9 µM; in experiment [1] it was 22.5 µM; in experiment [2] it was 7.9 µM; in experiment [3], 1.2 µM. This compound gave a minimum inhibitory concentration (MIC) against Escherichia coli of 29 µg/mL (≈ 106 µM).

In the case of `C=CCCNC(=O)c1ccc(-c2ccc(O)c(O)c2)o1`, the IC50 with Escherichia coli turned out to be 50.8 µM; in experiment [1] it was 21.2 µM; in experiment [2], 6.7 µM; in experiment [3] it was 1 µM. Also, the MIC in the experiment on Escherichia coli came to 39 µg/mL (≈ 143 µM).

Source of the values: ChEMBL document CHEMBL1152704, “Synthesis and structure-function analysis of Fe(II)-form-selective antibacterial inhibitors of Escherichia coli methionine aminopeptidase” (Bioorg Med Chem Lett, 2009).
